In US9976170B2, “Method for evaluating bacterial cell wall integrity” (UNIVERSIDAD AUTONOMA DE MADRID, priority 2011, dated 2018):
Values after ≈ are worked out from the molar mass of the structure shown. Read-outs that look alike come from different tables or passages of the source.

Legend:
Assay type in all cases: cell-based
[1] = test system: Enterococcus faecalis, ampicillin-sensitive and benzylpenicillin-resistant strain; assay: MIC by microdilution and/or E-test
Description: (§1) The strains and the antibiotics used were: • Gram+ • Enterococcus faecalis.
(§2) The doses of antibiotic applied were 0, the MIC determined in the Microbiology Laboratory by means of the microdilution and/or E-test technique, and those of the cutoff points of sensitivity and resistance indicated by the Clinical and Laboratory Standards Institute (CLSI) for each strain. A dose 10 times higher than the MIC was also used.

[2] = test system: Enterococcus faecium, ampicillin- and benzylpenicillin-resistant strain; assay: MIC by microdilution and/or E-test
Description: as §1, §2

[3] = test system: Enterococcus faecalis, ampicillin-sensitive and benzylpenicillin-resistant strain; assay: technique for evaluating cell wall integrity (lysis solution, nucleoid release, fluorescence microscopy); details: 60 minutes
Procedure: (§3) Different bacterial strains grown on a dish with Mueller-Hinton medium for 24 hours were subsequently exposed to a β-lactam antibiotic for 60 minutes in Mueller-Hinton liquid medium at 37° C., under stirring, and were finally processed by means of the technique for evaluating cell wall integrity according to the present invention.
as §2

[4] = test system: Enterococcus faecium, ampicillin- and benzylpenicillin-resistant strain; assay: as above; details: 320 μg/mL, 60 minutes
Procedure: as §3, §2

[5] = test system: Acinetobacter baumannii, imipenem- and ceftazidime-resistant strain; assay: MIC by microdilution and/or E-test
Description: as §1, §2

[6] = test system: Acinetobacter baumannii, imipenem-sensitive strain with intermediate sensitivity to ceftazidime; assay: MIC by microdilution and/or E-test
Description: as §1, §2

[7] = test system: Escherichia coli, ampicillin- and ceftazidime-resistant strain; assay: MIC by microdilution and/or E-test
Description: as §1, §2

[8] = test system: Escherichia coli, ceftazidime-sensitive strain with intermediate sensitivity to ampicillin; assay: MIC by microdilution and/or E-test
Description: as §1, §2

[9] = test system: Acinetobacter baumannii, imipenem- and ceftazidime-resistant strain; assay: technique for evaluating cell wall integrity (lysis solution, nucleoid release, fluorescence microscopy); details: 60 minutes
Procedure: as §3, §2

[10] = test system: Acinetobacter baumannii, imipenem-sensitive strain with intermediate sensitivity to ceftazidime; assay: as above; details: 60 minutes
Procedure: as §3, §2

[11] = test system: Escherichia coli, ampicillin- and ceftazidime-resistant strain; assay: as above; details: 60 minutes
Procedure: as §3, §2

[12] = test system: Escherichia coli, ceftazidime-sensitive strain with intermediate sensitivity to ampicillin; assay: as above; details: 60 minutes
Procedure: as §3, §2

[13] = test system: amoxicilin/clavulanic acid-sensitive E. coli strain
Procedure: The liquid with the cells is included in an agarose microgel which is dehydrated in alcohols and/or air dried or dried in an oven and stained with fluorochrome. It is the same process described in detail above, but without incubation with lysis solution.

[14] = test system: resistant strain of Escherichia coli; assay: technique for evaluating cell wall integrity, Examples 1 and 3
Description: (§4) Three different strains of Escherichia coli were exposed to the β-lactam antibiotic, amoxicilin, together with the β-lactamase inhibitor, clavulanic acid, and processed by means of the technique for evaluating cell wall integrity of the present invention. […] The doses of antibiotic were chosen according to the cutoff points indicated by the Clinical and Laboratory Standards Institute (CLSI). […] According to the disc diffusion data, one of the strains is a sensitive strain, another strain is a strain with intermediate sensitivity and the remaining strain is a resistant strain.
(§5) A sensitive strain, a strain with intermediate sensitivity and another resistant strain of E. coli were exposed to amoxicilin together with clavulanic acid in Mueller-Hinton liquid medium and processed by means of the technique for evaluating cell wall integrity of the present invention. […] The incubation times with the antibiotic were 5, 10, 20, 30, 40, 60 and 75 minutes.

[15] = test system: sensitive strain of Escherichia coli; assay: as above; details: for lysis of the bacteria, showing the nucleoids: exponential liquid culture
Description: as §4, §5

[16] = test system: strain of Escherichia coli with intermediate sensitivity; assay: as above; details: for incubation time at which a clear effect started to show: only after high dose (32/16)
Description: as §4, §5

[17] = test system: 11 different strains of E. coli isolated in a Microbiology Service; assay: technique for evaluating cell wall integrity on hospital isolates; details: of 11 strains, 1 hour
Procedure: Following the results of the preceding experiment (Example 1), 11 different strains of E. coli isolated in a Microbiology Service were studied. After growing on a dish with Mueller-Hinton medium for 24 hours, they were exposed to amoxicilin together with clavulanic acid in Mueller-Hinton liquid medium for 1 hour, after which they were processed by means of the technique for evaluating cell wall integrity according to the present invention.

[18] = test system: sensitive strain of E. coli; assay: background of extracellular DNA fragments, processed without the step of lysis (FIG. 8); details: 40 minutes, after 24 hours on a dish
Procedure: The strains were processed without the step of lysis by exposure to the lysis solution.
The liquid with the cells is included in an agarose microgel which is dehydrated in alcohols and/or air dried or dried in an oven and stained with fluorochrome. It is the same process described in detail above, but without incubation with lysis solution. The background can be evaluated rapidly after 15-20 minutes that it takes to perform the technique. The preparations are permanent.

[19] = 32/16, 15 minutes of incubation
[20] = dose 32/16, 40 minutes, exponential liquid culture
[21] = low dose (8/4), bacteria from 24-hour dish culture

## CC1(C)S[C@@H]2[C@H](NC(=O)Cc3ccccc3)C(=O)N2[C@H]1C(=O)O [benzylpenicillin]
[1]
  MIC: > 32 µg/mL
[2]
  MIC: > 32 µg/mL
[3]; 16 μg/mL
  background of extracellular DNA fragments: some background
  cells not lysed: 81%
  lysed cells with a large halo: 4.5%
[3]; 32 μg/mL
  cells lysed with nucleoid with fragmented DNA: 4%
  cells not lysed: 65%
  cells with a large halo: 4%
[3]; 320 μg/mL
  cells with a small halo: 25%
  non-lysed cells: 72.3%
[3]; 16, 32 and 320 μg/mL
  empty faint capsules: 0.5-1.5%
[4]
  background of extracellular DNA fragments: no background
  heavily lysed cells: 5%

## CC(C)(O/N=C(\C(=O)N[C@@H]1C(=O)N2C(C(=O)[O-])=C(C[n+]3ccccc3)CS[C@H]12)c1csc(N)n1)C(=O)O [ceftazidime]
[5]
  MIC: > 32 µg/mL
[6]
  MIC: 12 µg/mL (≈ 22 µM)
[7]
  MIC: 32 µg/mL (≈ 58.5 µM)
[8]
  MIC: 1 µg/mL (≈ 1.83 µM)
[9]; 2.560 μg/mL
  background of extracellular DNA fragments: same background persists
  cells lysed with nucleoids with fragmented DNA: 25%
  cells not lysed: 5%
  cells with a large halo: 63.5%
  cells with a small halo: 6.5%
[9]; 8 μg/mL
  very elongated and filamentous cells: 22%
[9]; 256 μg/mL
  background of extracellular DNA fragments: subtle background
  cells not lysed: 4.7%
  cells with a small halo: 63%
  heavily lysed cells: 32.3%
[9]; 20 and 32 μg/mL
  background of extracellular DNA fragments: without background
  cells with a large halo: 1.5%
  cells with a small halo: 84.5%
[9]; subsequent doses (20, 32, 256, 2.560 μg/mL)
  filamentous cells: 90%
[10]; 8 μg/mL
  background of extracellular DNA fragments: without background
  filamentous cells: 82%
  lysed cells with a small halo: 40%
  lysed cells with nucleoid with fragmented DNA: 1%
[10]; 12 μg/mL (MIC) and 20 μg/mL
  filamentous cells: 95%
[10]; 12 μg/mL (MIC)
  background of extracellular DNA fragments: subtle background
  lysed cells with a large halo: 1.5%
  lysed cells with a small halo: 94.5%
  non-lysed cells: 4%
[10]; 20 μg/mL
  lysed cells with a large halo: 3%
  lysed cells with a small halo: 91.5%
  non-lysed cells: 5.5%
[10]; 32 μg/mL
  background of extracellular DNA fragments: more background
  elongated cells: 90%
  lysed cells with a large halo: 6%
  lysed cells with a small halo: 88%
  non-lysed cells: 6%
[10]; 120 μg/mL
  background of extracellular DNA fragments: extensive background
  filamentous cells: 91%
  lysed cells with a large halo: 23%
  lysed cells with a small halo: 67%
  lysed cells with nucleoid with fragmented DNA: 36%
  non-lysed cells: 7%
[11]; 8 μg/mL
  filamentous cells: 13%
  well lysed cells: 1%
[11]; 20 μg/mL
  background of extracellular DNA fragments: without background
  filamentous cells: 99%
  non-lysed cells: 94%
  well lysed cells: 5%
[11]; 32 μg/mL (MIC)
  background of extracellular DNA fragments: subtle background
  empty capsules: 1%
  filamentous cells: 98%
  lysed cells with nucleoid with fragmented DNA: 3%
  non-lysed cells: 92%
  well lysed cells: 4%
[11]; 320 μg/mL
  background of extracellular DNA fragments: subtle background
  cells lysed with nucleoid with fragmented DNA: 0.5%
  filamentous cells: 99%
  heavily lysed cells: 3.5%
  moderately lysed cells: 95%
  non-lysed cells: 1%
[12]; 1 μg/mL (MIC)
  background of extracellular DNA fragments: some background
  filamentous cells: 99%
  heavily lysed cells: 97%
[12]; 8 μg/mL
  background of extracellular DNA fragments: more background
[12]; 10 μg/mL
  background of extracellular DNA fragments: extensive background
  empty capsules: 10.5%
  lysed cells with nucleoid with fragmented DNA: 11%
  well lysed cells: 76.5%
[12]; 20 and 32 μg/mL
  empty capsules: 25.3%
  lysed cells with nucleoid with fragmented DNA: 20%
  non-lysed cells: 2%
  well lysed cells: 52.7%

## C[C@@H](O)[C@H]1C(=O)N2C(C(=O)O)=C(SCCN=CN)C[C@H]12 [imipenem]
[5]
  MIC: > 32 µg/mL
[6]
  MIC: 0.38 µg/mL (≈ 1.27 µM)
[9]; 16 μg/mL
  cells with a large halo: 1%
  cells with a small halo: 1%
  lysed cells with nucleoid with fragmented DNA: 0.5%
[9]; 320 μg/mL
  cells not lysed: 92%
  heavily lysed cells: 3.5%
  lysed cells with a small halo: 2.5%
  lysed cells with nucleoid with fragmented DNA: 2%
[10]; 4 μg/mL
  cells with a large halo: 13.5%
  faint empty capsules: 12%
  lysed cells with nucleoid with fragmented DNA: 66%
  non-lysed cells: 8.5%
[10]; 8 μg/mL
  cells with a large halo: 6%
  faint empty capsules: 19.5%
  lysed cells with nucleoid with fragmented DNA: 69.5%
  non-lysed cells: 5%
[10]; 16 μg/mL
  cells with a large halo: 5%
  faint empty capsules: 15%
  lysed cells with nucleoid with fragmented DNA: 73.5%
  non-lysed cells: 6.5%

## amoxicilin/clavulanic acid
[13]; [19]
  background of extracellular DNA fragments, without lysis: very clear background
  cells per mL, measured by Neubauer chamber: 42.5 million of cells per mL
[13]; 32/16, 15 minutes of incubation, starting OD 600 0.07
  OD 600: 0.071
[13]; 32/16, 2 hours of incubation
  OD 600: 0.033
  cells per mL: 14.5 million of cells per mL
[13]; 32/16, 3 hours
  OD 600: 0.037
[13]; 32/16, 4 hours
  OD 600: 0.033
[13]; 32/16, 6 hours
  OD 600: 0.035
  cells per mL: 13.5 million of cells per mL
[13]; 32/16, after 3 and 4 hours
  background of extracellular DNA fragments, without lysis: poor
[13]; 32/16, after 6 hours
  background of extracellular DNA fragments, without lysis: no longer observed
[13]; 32/16, at both 3 and 4 hours
  cells per mL: 14 million of cells per mL
[13]; 32/16, up to 2 hours of incubation
  background of extracellular DNA fragments, without lysis: remains intense
[14]; 8/4 and 32/16, liquid culture in exponential growth phase
  effect on the wall: did not show any effect at all
[14]; 8/4 and 32/16, up to 75 minutes, bacteria from 24-hour dish culture
  effect on the wall: did not show any effect at all
[14]; [20]
  lysis of the bacteria, showing the nucleoids: not lysed
[15]; dose 8/4 (8 μg/mL amoxicilin, 4 μg/mL clavulanic acid), 40 minutes
  lysis of the bacteria, showing the nucleoids: lysed
[15]; dose 32/16, 40 minutes
  lysis of the bacteria, showing the nucleoids: lysed
[15]; high dose (32/16), bacteria from 24-hour dish culture
  incubation time after which an effect (background, subtle cell lysis) started to be seen: 20 min
[15]; low (8/4) and high (32/16) dose, liquid culture in exponential growth phase
  incubation time after which an effect started to be observed: 10 min
[15]; [21]
  incubation time after which the subtle effect was observed: 40 min
  incubation time at which the effect became maximum (lysis of virtually all cells): 60 min
[16]; [20]
  lysis of the bacteria, showing the nucleoids: lysed
[16]; bacteria from 24-hour dish culture
  incubation time at which a clear effect started to show: 60 min
[16]; liquid culture in exponential growth phase
  incubation time at which a clear effect started to show: 30 to 40 min
[17]
  strains with complete wall lysis and intense background even at low dose (8/4), categorized as sensitive: Three
  strains with complete wall lysis and intense background only at high dose (32/16), intermediate sensitivity: 5
  strains with non-lysed and moderately lysed cells, very faint or no background at high dose, categorized as resistant: Two
[18]; high dose (32/16)
  background of extracellular DNA fragments, without lysis: increases significantly
[18]; low dose (8/4)
  background of extracellular DNA fragments, without lysis: evident
